Values quoted from earlier work in patent publication US7446222B2, “Phenyl compounds” (Glaxo Group Limited, priority 2002, dated 2008).

Tests used:
[1] = system: rat model of chronic constriction injury
[2] = system: rodent model of post-operative pain
[3] = target: T1, human EP1 prostanoid receptor (Homo sapiens, UniProt P34995); settings: human EP1 prostanoid receptor ligand
T1 sequence (P34995 1-402): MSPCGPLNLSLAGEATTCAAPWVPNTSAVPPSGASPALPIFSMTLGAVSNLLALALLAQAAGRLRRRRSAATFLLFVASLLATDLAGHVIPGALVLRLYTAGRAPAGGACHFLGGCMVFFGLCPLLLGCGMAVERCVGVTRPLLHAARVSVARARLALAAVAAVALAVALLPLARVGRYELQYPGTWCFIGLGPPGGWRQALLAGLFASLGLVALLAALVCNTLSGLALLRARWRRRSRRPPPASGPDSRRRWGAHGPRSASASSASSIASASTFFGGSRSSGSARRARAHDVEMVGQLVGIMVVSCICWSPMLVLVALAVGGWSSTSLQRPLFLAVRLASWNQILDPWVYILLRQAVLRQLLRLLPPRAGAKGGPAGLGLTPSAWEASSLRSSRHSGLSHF

| Compound | effect on hyperalgesia and allodynia [1] | effect on mechanical hyperalgesia [2] | potency compared with the comparable 2,3-diarylthiophene compound [3] | selectivity compared with the comparable 2,3-diarylthiophene compound [3] |
| --- | --- | --- | --- | --- |
| Cc1cc(Cl)ccc1S(=O)(=O)NC[C@H]1C2CCC(CC2)[C@@H]1/C=C\CCCC(=O)O [ONO-8711] | reduces hyperalgesia and allodynia | inhibits mechanical hyperalgesia |  |  |
| O=C(O)c1ccc(-c2ccccc2-c2ccccc2OCc2ccccc2)cc1 [2-benzyloxy[1,1′;2′,1″]terphenyl-4″-carboxylic acid] |  |  | less potent | less selective |
